Test results published in publication PMC3693456 (Bioorganic & medicinal chemistry letters, 2008).

Target: CB1 receptor (Rattus norvegicus, UniProt P20272)
Type: binding
Conditions: rat brain membranes, PMSF; for CB1 receptor affinity (in words): qualitative statement

Chain of CB1 receptor (P20272 whole entry): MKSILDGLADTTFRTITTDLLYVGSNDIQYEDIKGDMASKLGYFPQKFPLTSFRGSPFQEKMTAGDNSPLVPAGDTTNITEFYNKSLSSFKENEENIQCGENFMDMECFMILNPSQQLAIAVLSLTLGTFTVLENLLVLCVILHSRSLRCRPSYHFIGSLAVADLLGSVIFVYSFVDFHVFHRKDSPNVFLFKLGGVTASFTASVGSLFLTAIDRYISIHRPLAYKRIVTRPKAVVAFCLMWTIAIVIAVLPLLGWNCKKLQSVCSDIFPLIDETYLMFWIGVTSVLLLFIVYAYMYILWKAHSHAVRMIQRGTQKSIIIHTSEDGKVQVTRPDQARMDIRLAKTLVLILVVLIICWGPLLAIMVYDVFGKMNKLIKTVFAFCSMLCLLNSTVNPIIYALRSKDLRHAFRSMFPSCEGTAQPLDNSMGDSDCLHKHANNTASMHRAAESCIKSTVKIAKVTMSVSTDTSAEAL

| Compound | fold lower CB1 affinity compared to 7d (relative to 7d) | CB1 receptor affinity (in words) |
| --- | --- | --- |
| C[C@H](CO)NC(=O)CCC/C=C\C/C=C\C/C=C\C/C=C\CCCCCc1ccccc1 [7e] | over 5 fold | – |
| C[C@H](CO)NC(=O)CCC/C=C\C/C=C\C/C=C\C/C=C\CCCCc1cccc2ccccc12 [7f] | – | loss of CB1 receptor affinity |
| C[C@H](CO)NC(=O)CCC/C=C\C/C=C\C/C=C\C/C=C\CCCCc1ccc(Br)cc1 [7n] | – | most potent analog |
| C[C@H](CO)NC(=O)CCC/C=C\C/C=C\C/C=C\C/C=C\CCCCc1ccco1 [7q] | – | substantially weaker affinity |
